The text below walks through data of PubChem BioAssay (NCI).

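Following 48 hours of exposure in 96-well plates, responses at five concentrations were used to interpolate endpoints linearly. Here, GI50 denotes the concentration required for 50% inhibition of growth. TGI marks complete inhibition of growth.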 Some results are limits rather than exact numbers.

Among the test systems are A549 NSCLC; ACHN renal; HCT-15 colon; HS 578T breast; IGROV1 ovarian; MDA-MB-435; OVCAR-5 ovarian; RXF 393 renal; SF-539 CNS; UACC-257 melanoma.
Holding throughout (assay): growth of human tumour cells (NCI), 48 h

For the compound `CC(=O)OC[C@]1(C)C=C2C(=O)[C@](C)(O)C3(CC3)C(C)=C2[C@H]1O`, the GI50 was 0.172 µM in the assay on A549 NSCLC; 0.0221 µM with ACHN renal; 0.0306 µM in the assay with HCT-15 colon; 0.296 µM with HS 578T breast; 0.0457 µM in the assay with IGROV1 ovarian; 0.136 µM with MDA-MB-435. Besides, the GI50 was 0.0666 µM in the assay with OVCAR-5 ovarian, 0.0612 µM with RXF 393 renal, 0.166 µM in the assay on SF-539 CNS and 0.28 µM in the assay on UACC-257 melanoma. The TGI with A549 NSCLC was determined as 2.8 µM; with ACHN renal, 0.0501 µM; in the assay with HCT-15 colon it was 31.8 µM; with HS 578T breast, 1.09 µM; in the assay with IGROV1 ovarian, 0.364 µM; in the assay with MDA-MB-435, 0.587 µM. The TGI in the assay on OVCAR-5 ovarian came to 0.506 µM; with RXF 393 renal, 0.199 µM; in the assay with SF-539 CNS, 0.388 µM; in the assay with UACC-257 melanoma, 1.12 µM.
`CC[CH2][Sn]([CH2]CC)([O]C(=O)c1cccnc1SC)[O][Sn]([CH2]CC)([CH2]CC)[O]C(=O)c1cccnc1SC`: the GI50 is 3.2 µM in the assay with A549 NSCLC; 0.427 µM with ACHN renal; 0.246 µM in the assay with HCT-15 colon; 1.5 µM in the assay on HS 578T breast; 1.26 µM with IGROV1 ovarian; 1.54 µM in the assay on MDA-MB-435. The GI50 with OVCAR-5 ovarian is 2.09 µM; in the assay with RXF 393 renal it was 0.0992 µM; in the assay on SF-539 CNS, 0.468 µM; in the assay on UACC-257 melanoma it was 0.594 µM. Moreover, the TGI with A549 NSCLC came to 6.24 µM; with ACHN renal it was 0.97 µM; with HCT-15 colon, 0.998 µM; in the assay on HS 578T breast it was 6.36 µM; in the assay on IGROV1 ovarian it was 3.79 µM; with MDA-MB-435, 2.89 µM. The TGI in the assay on OVCAR-5 ovarian stood at 3.64 µM; with RXF 393 renal it was 0.342 µM; in the assay on SF-539 CNS it was 1.24 µM; in the assay on UACC-257 melanoma it was 1.72 µM.
Take `CN1CCN(C(=O)OCc2nc3c(N4CCOCC4)nc(Cl)nc3n2C)CC1`: the GI50 in the assay on A549 NSCLC was 1.81 µM; with ACHN renal, 0.831 µM; in the assay with HCT-15 colon, 0.905 µM; in the assay on HS 578T breast, 1.64 µM; with IGROV1 ovarian, 1.24 µM; in the assay on MDA-MB-435, 1.16 µM. The GI50 is 1.6 µM in the assay on OVCAR-5 ovarian, 1.08 µM with RXF 393 renal, 1.39 µM in the assay with SF-539 CNS and 1.39 µM with UACC-257 melanoma. In addition, the TGI amounted to 5.25 µM with A549 NSCLC; 2.11 µM in the assay on ACHN renal; 2.79 µM in the assay with HCT-15 colon; 5.38 µM in the assay with HS 578T breast; 2.57 µM in the assay on IGROV1 ovarian; 2.44 µM in the assay with MDA-MB-435. The TGI in the assay with OVCAR-5 ovarian was 3.54 µM; with RXF 393 renal, 2.31 µM; in the assay with SF-539 CNS, 2.73 µM; in the assay with UACC-257 melanoma it was 3.22 µM.
For the compound `Cn1c2ccccc2c2c(-c3ccccc3)[n+]3ccncc3nc21`, the GI50 in the assay with A549 NSCLC is greater than 100 µM; in the assay on ACHN renal, greater than 100 µM; in the assay on HCT-15 colon, greater than 100 µM; with HS 578T breast it was 87.5 µM; in the assay on IGROV1 ovarian, 70.8 µM; in the assay on MDA-MB-435 it was 94.3 µM. Also, the GI50 is greater than 100 µM in the assay with OVCAR-5 ovarian, greater than 100 µM in the assay with RXF 393 renal, 48.3 µM with SF-539 CNS and 59.5 µM in the assay with UACC-257 melanoma. The TGI in the assay with A549 NSCLC, in the assay on ACHN renal, in the assay on HCT-15 colon, in the assay on HS 578T breast, in the assay on IGROV1 ovarian and in the assay on MDA-MB-435 was greater than 100 µM each time. Further, the TGI in the assay on OVCAR-5 ovarian, in the assay on RXF 393 renal, in the assay on SF-539 CNS and in the assay on UACC-257 melanoma was greater than 100 µM throughout.
Take `Cn1c(=O)c2[nH]c(SCc3ccccn3)nc2n(C)c1=S`: the TGI with A549 NSCLC, in the assay with ACHN renal, in the assay on HCT-15 colon, with HS 578T breast, in the assay on IGROV1 ovarian and with MDA-MB-435 was greater than 100 µM throughout. Further, the TGI in the assay on OVCAR-5 ovarian, in the assay with RXF 393 renal, in the assay with SF-539 CNS and in the assay with UACC-257 melanoma was greater than 100 µM each time.
In the case of `O=C1Nc2c(C(F)(F)F)cccc2[C@]1(c1ccc(O)cc1)c1ccc(OC(F)(F)F)cc1`, the GI50 in the assay with A549 NSCLC is 5.26 µM; in the assay with ACHN renal, 9.82 µM; in the assay on HCT-15 colon, 9.43 µM; in the assay with HS 578T breast, 1.44 µM; in the assay with IGROV1 ovarian, 9.42 µM; with MDA-MB-435, 13.6 µM. In addition, the GI50 with OVCAR-5 ovarian is 12 µM; in the assay with RXF 393 renal it was 3.29 µM; in the assay on SF-539 CNS it was 14.4 µM; with UACC-257 melanoma, 11.8 µM. Moreover, the TGI amounted to 20 µM in the assay on A549 NSCLC; 21.5 µM in the assay on ACHN renal; 23.3 µM with HCT-15 colon; 5.89 µM with HS 578T breast; 23.4 µM in the assay on IGROV1 ovarian; 26.6 µM with MDA-MB-435. Also, the TGI amounted to 24.4 µM in the assay with OVCAR-5 ovarian, 15.5 µM in the assay with RXF 393 renal, 27.6 µM with SF-539 CNS and 24.9 µM in the assay on UACC-257 melanoma.
